{"source": "patent EP1670820B1", "about": "“ANTIGENS FOR AN EAST COAST FEVER VACCINE” (International Livestock Research Institute ( ILRI), priority 2003, dated 2005)", "test_system": "peptide pulsed autologous iSF", "experiment": "51Chromium release assay: CTL lysis of peptide pulsed autologous iSF", "assay_type": "cell-based, cattle", "conditions": "autologous iSF pulsed overnight with peptide; BW014 polyclonal CD8+ CTL line (FIG. 9)", "data": [{"sequence": "SLVCVLMKC [Tp2 peptide 76B]", "values": [{"measurement": "lysis of iSF pulsed with peptide", "value": "background levels of lysis"}]}]}
